{"source": "patent US20120288442A1", "about": "“Nuclear Imaging Method Using Molecular Target Detection Agent for Liver Fibrosis” (ATOMIC ENERGY COUNCIL-INSTITUTE OF NUCLEAR ENERGY RESEARCH, priority 2011, published 2012)", "molecular_target": "T1, CB1 receptor of liver fibrosis cell (Mus musculus, UniProt P47746)", "T1 construct": "from tissue; host or cells: liver of living mice (one fibrotic, one normal), in vivo imaging", "T1 sequence (P47746 whole entry)": "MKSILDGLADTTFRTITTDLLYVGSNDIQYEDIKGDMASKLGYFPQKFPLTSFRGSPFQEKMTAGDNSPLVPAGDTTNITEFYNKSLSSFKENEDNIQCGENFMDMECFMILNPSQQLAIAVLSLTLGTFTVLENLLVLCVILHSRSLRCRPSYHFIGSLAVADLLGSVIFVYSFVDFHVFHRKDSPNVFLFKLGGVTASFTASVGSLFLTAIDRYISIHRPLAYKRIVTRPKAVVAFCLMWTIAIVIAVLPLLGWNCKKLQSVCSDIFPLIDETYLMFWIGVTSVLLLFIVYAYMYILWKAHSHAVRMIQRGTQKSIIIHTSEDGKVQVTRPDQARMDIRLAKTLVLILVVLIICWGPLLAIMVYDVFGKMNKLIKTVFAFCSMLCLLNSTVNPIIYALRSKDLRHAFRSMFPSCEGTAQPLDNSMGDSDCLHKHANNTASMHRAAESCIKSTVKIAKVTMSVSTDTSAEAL", "test": "fluorescence imaging of a mouse having liver fibrosis and a normal mouse with Tocrifluor", "assay_type": "in vivo", "conditions": "for a 543 nm light; FIG. 3B and FIG. 3C"}
{"substance": "N-(Piperidin-1-yl)-5-(4-(4-(3-(5-carboxamidotetramethyl rhodaminyl)propyl))phenyl)-1-(2,4-dichlorophenyl)-4-methyl-1H-pyrazole-3-carboxamide [Tocrifluor]", "values": [{"measurement": "fluorescence found at wavelength", "value": 590, "unit": "nm"}]}
